Here are results for 6 compounds from patent US20220241168A1, “COMPOSITION FOR STIMULATING BETA-ENDORPHIN PRODUCTION COMPRISING SANSHOOL” (AMOREPACIFIC CORPORATION, priority 2021, published 2022).

The subject of data set [1] is CB2 receptor. Conditions: intraperitoneal administration; cited from earlier work.
The test system of data set [2] is human-derived keratinocyte, HaCaT. In words: IL-1b release from HaCaT under poly (I:C)-induced allergic contact dermatitis conditions (ELISA). It counts as cell-based. Conditions: 10 μM, poly (I:C) 15 ng/ml, 24 hours. The protocol: First, a human-derived keratinocyte, HaCaT, was dispensed in a 24-well plate together with a Dulbecco's modified eagle's medium (DMEM) containing 10% fetal bovine serum (FBS), and cultured at 37° C. under 5% CO2 culture conditions for 24 hours. Afterwards, while inducing allergic contact dermatitis conditions to the HaCat with 15 ng/ml of poly (I:C), each of Example 1 (hydroxy-α-sanshool) and Example 2 (hydroxy-γ-sanshool), which were each dissolved in dimethyl sulfoxide (DMSO), were treated at 10 μM and dissolved in the medium. After 24 hours, each medium was collected, and IL-1b ELISA kit (R&D systems) was used to measure an amount of cytokine IL-1b according to a manufacturer's method.

Data set [3] concerns normal human epidermal cells, keratinocyte. The data set is described as follows: β-endorphin secretion from normal human epidermal keratinocytes (β-endorphin EIA kit). It counts as cell-based. Conditions: for amount of β-endorphin secreted from keratinocyte: 10 μM, six hours, compared to control group (FIG. 1, FIG. 2); for β-endorphin production effect: six hours (FIG. 3). The protocol: First, normal human epidermal cells, keratinocyte (Gibco), were cultured from a 6-well plate to a confluence point at 37° C. under 5% CO2 culture conditions. In an embodiment of the present disclosure, a keratinocyte-SFM (Gibco) medium was treated with 10 μM of each of hydroxy-α-sanshool (CHEMFACES®; Example 1), hydroxy-γ-sanshool (Chengdu Biopurify Phytochemicals Ltd.; Example 2), hydroxy-β-sanshool (Chengdu Biopurify Phytochemicals Ltd.; Example 3), hydroxy-ε-sanshool (Chengdu Biopurify Phytochemicals Ltd.; Example 4), cannabidiol (CBD) (Sigma-Aldrich®; Comparative Example 1), honokiol (Sigma-Aldrich®; Comparative Example 2), magnolol (Sigma-Aldrich®; Comparative Example 3), and palmitoylethanolamide (PEA) (Sigma-Aldrich®; Comparative Example 4), which are known as CB2 agonists as Comparative Examples, and cultured at 37° C. for six hours under 5% CO2 culture conditions. Afterwards, each medium was collected, and a β-endorphin EIA kit (EK-022-14, Phoenix pharmaceuticals, Belmont, Calif.) was used to quantify an amount of β-endorphin secreted from keratinocyte in each medium. Student t-test was used for statistical significance between specimens, and when a value of p-value is less than or equal to 0.05, it was analyzed as statistically significant. (*p<0.05, **p<0.01, ***p<0.001)
First, normal human epidermal cells, keratinocyte (Gibco), were cultured from a 6-well plate to a confluence point at 37° C. under 5% CO2 culture conditions. […] Afterwards, each medium was collected, and a β-endorphin EIA kit (EK-022-14, Phoenix pharmaceuticals, Belmont, Calif.) was used to quantify an amount of β-endorphin secreted from keratinocyte in each medium. Student t-test was used for statistical significance between specimens, and when a value of p-value is less than or equal to 0.05, it was analyzed as statistically significant. (*p<0.05, **p<0.01, ***p<0.001)

For data set [4] the following is noted: sanshool-containing drug ingested; cited from earlier work.

With `CN1CCCCC1Cn1cc(C(=O)c2cc([N+](=O)[O-])ccc2I)c2ccccc21` (centres unmarked) [AM1241], the endorphin secretion result in data set [1] is reported as “had an effect on inducing endorphin secretion”. With `C/C=C/C=C/C=C\CC/C=C/C(=O)NCC(C)(C)O` [Example 1, hydroxy-α-sanshool], the IL-1b in data set [2] was determined as 11.29 pg/mL.

In data set [2], `C/C=C/C=C/C=C\CC/C=C/C=C/C(=O)NCC(C)(C)O` [Example 2, hydroxy-γ-sanshool] returned an IL-1b of 11.2 pg/mL. With `C=CCc1ccc(O)c(-c2ccc(O)c(CC=C)c2)c1` [honokiol, reference compound], the “amount of β-endorphin secreted from keratinocyte” value in data set [3] was “further decrease in an amount of β-endorphin secretion compared to a control group”. Still for that read-out and setting: then `C=CCc1ccc(O)c(-c2cc(CC=C)ccc2O)c1` [magnolol, reference compound], with “further decrease in an amount of β-endorphin secretion compared to a control group”. For the compound sanshool, the β-endorphin production effect result in data set [3] (0.00006 wt %) is given as “β-endorphin production effect was not shown”; in data set [3] (0.006 wt % as printed), “production of β-endorphin was induced”. The presence in plasma entry in data set [4] is “remained in plasma”.
